Holding throughout (assay): NCI-60 cell line screen, 48 h
Assay [1] concerns CCRF-CEM.
The test system of assay [2] is M14.
Assay [3] deals with LOX IMVI.
For assay [4], the system named is HCT-116.
Assay [5] relates to ACHN.
In assay [6] the test system is MDA-N.
The subject of assay [7] is SK-OV-3.
In assay [8] the test system is HOP-62.
The subject of assay [9] is RXF 393.
The subject of assay [10] is OVCAR-3.
For assay [11], the system named is HT-29.
Assay [12] deals with NCI-H23.
Assay [13] has as its system HL-60.
The subject of assay [14] is A549.
Assay [15] relates to SK-MEL-2.
The subject of assay [16] is Malme-3M.
The test system of assay [17] is SR.

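1) Cells in 96-well plates. 2) Compound, 48 h, 5 concentrations. 3) Linear interpolation between surrounding doses. 4) Unreached endpoint = highest concentration. At the GI50, growth is halved.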 Calls of active or inactive are those of the source. Cut-off read from the data, not from the text of the source: active = GI50 up to about 1.1 µM and inactive = higher.

Consider `CN1N=C(c2ccncc2)OC1c1ccccc1F` (stereo not given), for which the GI50 in [1], in assay [2], in assay [3], in [4], in assay [5] and in assay [6] was > 100 µM (inactive) each time. In addition, the GI50 in [7], in assay [8], in assay [9], in assay [10], in assay [11] and in assay [12] was > 100 µM (inactive) each time. For the same compound, the GI50 in assay [13], in assay [14] and in assay [15] was > 100 µM (inactive) in each case.

Consider `O=C1CC(c2ccc(Cl)cc2)C2(C(=O)NC(=S)NC2=O)C(c2ccc(Cl)cc2)C1` (stereo not given), for which the GI50 was 24.2 µM (inactive) in assay [1]; 22.2 µM (inactive) in [2]; 28.3 µM (inactive) in assay [3]; 18.7 µM (inactive) in assay [4]; 21.4 µM (inactive) in assay [16]; 30.3 µM (inactive) in assay [17]. The GI50 in [5] is 36.2 µM (inactive); in assay [6] it was 17.2 µM (inactive); in assay [7] it was 14.9 µM (inactive); in assay [8], 26.8 µM (inactive); in assay [9], 14.5 µM (inactive); in assay [10] it was 17.4 µM (inactive). The GI50 in [11] was 16.9 µM (inactive); in [12] it was 18.8 µM (inactive); in [13] it was 20.8 µM (inactive); in assay [14], 26.9 µM (inactive); in [15], 17.3 µM (inactive).

Consider `COc1cccc([C@@H]2C/C(=N\NC(=O)C(=O)N[C@@H](C)c3ccccc3)c3cc4c(cc3N2)OCO4)c1`, for which the GI50 in assay [1] is 28.1 µM (inactive); in [2], 34.1 µM (inactive); in assay [3], 80 µM (inactive); in assay [4] it was 22.4 µM (inactive); in [5] it was > 100 µM (inactive); in assay [6] it was 7.19 µM (inactive). Further, the GI50 in assay [7] is > 100 µM (inactive); in assay [8], 69.5 µM (inactive); in assay [9] it was > 100 µM (inactive); in assay [10] it was 30.1 µM (inactive); in assay [14], 43.9 µM (inactive); in [15], 85.9 µM (inactive).

Turning to `Cc1cc(-c2ccc(Cl)cc2)c(C#N)c(=S)n1C1OC(CO)C(O)C(O)C1O` (stereo not given), the GI50 in assay [1], in [2], in assay [3], in assay [4], in assay [16] and in assay [17] was > 100 µM (inactive) each time. Moreover, the GI50 in assay [5], in [6], in [7], in assay [8], in assay [9] and in [10] was > 100 µM (inactive) in each case. Moreover, the GI50 in assay [11], in [12], in assay [13], in [14] and in [15] was > 100 µM (inactive) throughout.

On to `CN(C)CCNC(=O)c1cccc2c(NC(CCCNC(=N)N)C(=O)O)c3ccccc3nc12` (stereo not given), for which the GI50 is 15.3 µM (inactive) in assay [1]; 14 µM (inactive) in [2]; 3.85 µM (inactive) in assay [3]; 3.93 µM (inactive) in [4]; 3.86 µM (inactive) in assay [16]; 1 µM (active) in assay [17]. Moreover, the GI50 in assay [5] is 2.79 µM (inactive); in assay [6], 14 µM (inactive); in [7], 12.6 µM (inactive); in assay [8] it was 9.73 µM (inactive); in assay [10], 18.1 µM (inactive); in [11] it was 2.7 µM (inactive). The GI50 was 5.53 µM (inactive) in assay [12], > 100 µM (inactive) in [13], 4.8 µM (inactive) in [14] and 13.8 µM (inactive) in assay [15].

Consider `CC(C)C1OC(N)=C(C#N)C1(C#N)C#N` (stereo not given), for which the GI50 in [1] was 10.9 µM (inactive); in [2], 60.7 µM (inactive); in assay [3], 28.1 µM (inactive); in [4], 26.3 µM (inactive); in [16], > 100 µM (inactive); in assay [5] it was 36.9 µM (inactive). The GI50 in assay [6] is 38.2 µM (inactive); in assay [7], > 100 µM (inactive); in assay [8] it was 44.4 µM (inactive); in assay [9] it was 44.7 µM (inactive); in assay [11], 38.1 µM (inactive); in assay [12], 33.3 µM (inactive). For the same compound, the GI50 was 5.58 µM (inactive) in assay [13], > 100 µM (inactive) in [14] and > 100 µM (inactive) in assay [15].

Regarding `O=[N+]([O-])c1ccc(Cl)c2c([N+](=O)[O-])cccc12`, the GI50 in [1] was 2.36 µM (inactive); in assay [3], 3.71 µM (inactive); in [4] it was 1.76 µM (inactive); in assay [16] it was 5.82 µM (inactive); in assay [17], 3.95 µM (inactive); in assay [6], 2.18 µM (inactive). Besides, the GI50 in assay [7] was 2.28 µM (inactive); in assay [8], > 10 µM (inactive); in assay [9] it was > 10 µM (inactive); in assay [10], 3.49 µM (inactive); in assay [11], 3.26 µM (inactive); in assay [12], 9.27 µM (inactive). Further, the GI50 in assay [13] was 2.48 µM (inactive); in assay [14], > 10 µM (inactive); in assay [15], 8.34 µM (inactive).

As for `CCOC(=O)CSc1[nH]c2nc(C)nc(Cl)c2c1C#N`, the GI50 in assay [1], in [2], in assay [3], in [16], in assay [17] and in assay [6] was > 10 µM (inactive) in each case. In addition, the GI50 in assay [7], in assay [8], in assay [9], in assay [11], in assay [12] and in assay [13] was > 10 µM (inactive) throughout. Besides, in assay [14], the GI50 was > 10 µM (inactive).

For the compound `CC1(C)S[C@@H]2[C@H](N3C(=O)c4ccccc4C3=O)CN2[C@H]1NC(=O)N[C@@H]1N2C[C@@H](N3C(=O)c4ccccc4C3=O)[C@H]2SC1(C)C`, the GI50 in [1], in assay [2], in [3], in [4], in assay [16] and in assay [5] was > 100 µM (inactive) in each case. Moreover, the GI50 in assay [7] was 80.9 µM (inactive); in [8], 48.8 µM (inactive); in [9], 45.3 µM (inactive); in assay [10] it was > 100 µM (inactive); in assay [11], > 100 µM (inactive); in [12] it was > 100 µM (inactive). For the same compound, the GI50 in assay [13] is > 100 µM (inactive); in assay [14], 73.3 µM (inactive); in assay [15] it was > 100 µM (inactive).

The values above are taken from ChEMBL document CHEMBL1201862, “PubChem BioAssay data set” (2004).
